# In patent US20040086891A1, “Dehydrogenase oligomeric modulators” (priority 1998, published 2004):
# Entries after “also recorded” stand apart in the source; their conditions may differ.
# Tests used:
# [1] = test system: partially differentiated PC12 cells or fibroblasts; assay: Apoptosis and GAPDH nuclear translocation after NO donor treatment; type: cell-based
# Source text: (§1) The subcellular localization of GAPDH in PC12 cells entering apoptosis using immunocytochemistry and LCSM has been studied.
# GAPDH [2] = biological target: T1, GAPDH (Homo sapiens, UniProt P04406); assay: Photoaffinity binding and BODIPY-labelled CGP3466 protein binding study; conditions: photoaffinity binding techniques, BODIPY chromogen
# T1 sequence (P04406 whole entry, species assumed): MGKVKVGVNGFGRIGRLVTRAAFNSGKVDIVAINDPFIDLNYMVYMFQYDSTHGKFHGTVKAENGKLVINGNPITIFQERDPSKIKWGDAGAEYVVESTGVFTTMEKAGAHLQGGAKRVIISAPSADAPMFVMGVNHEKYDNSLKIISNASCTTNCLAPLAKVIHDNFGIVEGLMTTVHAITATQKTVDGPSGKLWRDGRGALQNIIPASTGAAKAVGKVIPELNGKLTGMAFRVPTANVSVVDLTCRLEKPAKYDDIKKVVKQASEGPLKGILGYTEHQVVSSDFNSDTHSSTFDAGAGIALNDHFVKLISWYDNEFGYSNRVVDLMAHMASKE
# Source text: It was also shown that there was an increase in GAPDH levels found in early apoptosis. Photoaffinity binding techniques and a BODIPY chromogen attached to dibenzo[bf]oxepin-10-ylmethyl-prop-2-ynyl-amine (CGP3466), were used to study the protein and subcellular binding of (−)-desmethyldeprenyl (DES) and CGP3466.
# PC12 cells = assay: Subcellular localization of GAPDH in PC12 cells entering apoptosis (immunocytochemistry, LCSM); type: cell-based; conditions: early apoptosis, 3-12 hours after serum and NGF withdrawal
# Source text: as §1
# GAPDH [3] = assay: GAPDH protein levels in early apoptosis after trophic withdrawal; type: cell-based; conditions: increase begins 1.5 to 2.0 hours after trophic withdrawal
# Source text: (§2) As well as the nuclear translocation, GAPDH levels increase rapidly in the early phases of apoptosis. […] At least three molecules associated with toxin-induced neuronal apoptosis—nitric oxide, superoxide radical and peroxynitrite—have the capacity to free GAPDH from AU-rich RNA (Beckman and Koppenol, 1996). Nitric oxide modifies the structure of GAPDH and appears to free it from AU-rich RNA (Brune and Lapetina, 1995; Brune and Lapetina, 1996; Itoga et al., 1997; McDonald and Moss, 1994). Oxygen free radicals enhance the binding of NAD^+ to GAPDH (Marin et al., 1995). If, in fact, GAPDH translocation to the nucleus does initiate or facilitate apoptosis, then ROS and NO may induce apoptosis through GAPDH.
# GAPDH [4] = biological target: T1, GAPDH; assay: Size exclusion chromatography of the oligomeric state of GAPDH; type: biochemical; conditions: for oligomeric state of GAPDH bound to poly-U RNA: size exclusion chromatography, GAPDH largely tetrameric without compound; for oligomeric state of GAPDH in the presence of SDS: sodium dodecyl sulfate added, untreated protein becomes monomeric
# Protocol: A dehydrogenase oligomeric modulator is identified using size exclusion chromatographic (SEC) techniques. A test compound is tested for its ability to prevent tetramer formation of GAPDH and compounds capable of preventing or inhibiting such formation are identified as DOMs. SEC is used to determine if potential compounds affect the oligomeric state of GAPDH (or any oligomeric protein) when contacted with GAPDH under conditions which promote oligomer formation. This method can be further refined and sped up (i.e., faster data collection) by using SEC-high performance liquid chromatographic (SEC-HPLC) methods. An example is set forth below.
# A column was made using a disposable 1 cm diameter column (BIORAD). The chosen matrix for the column was Sephacryl H-300 (PHARMACIA). The column was poured by mixing the beads (SEPHACRYL) in a buffer and layering into the column until the bed was about 12 cm long. The buffer used was 50 mM TRIS—HCl, pH 8.0. The column was then washed with the same buffer for 10 column volumes.
# A selection.of protein standards of known molecular weight was run through the column.
# Once the column is calibrated, the molecular weight of the eluted fractions (in this case, GAPDH monomers, dimers and tetramers) may be determined.
# Prior to moving the proteins to the column they are contacted with candidate compound and mixed at room temperature in, e.g., nanomolar concentrations under conditions known to those skilled in the art.
# The mixture prepared above is then added to the column and eluted with 50 mM TRIS—HCl pH 8.0 buffer. 500 μl fractions of the eluent are collected. The optical density of the fractions is then determined, e.g., at 280 nm, and an elution profile prepared and analyzed to determine the extent of oligomerization.
# GAPDH is a tetramer consisting of four identical monomers (FIG. 1). The tetramer exists in equilibrium between tetramers, dimers and monomers. This equilibrium strongly favors the tetrameric form. Upon tetramer formation, there is a channel present between the four monomers. […] As such, the ability of (−)-desmethyldeprenyl and CGP3466 to decrease GAPDH tetramer and increase GAPDH dimer in vitro identifies these compounds as oligomeric modulators of GAPDH.
# GAPDH [5] = biological target: T1, GAPDH; assay: Antibody blocking experiment for drug binding in the GAPDH channel; conditions: protein first treated with antibody, then drug
# Protocol: Antibody blocking experiments were conducted to confirm that CGP3466 bound GAPDH in the channel. In FIG. 2, GAPDH is shown in blue with the site for an antibody which was raised to a certain part of GAPDH is green.
# GAPDH [6] = biological target: T1, GAPDH; conditions: cited from earlier work
# NG108-15 cells = conditions: cited from earlier work
# fibroblasts = assay: GAPDH nuclear translocation in fibroblasts treated with NAD+; type: cell-based
# GAPDH [7] = biological target: T1, GAPDH; assay: Release of GAPDH from AU-rich RNA and glycolytic activity; type: biochemical
# Source text: as §2
# COS and Hek cells = assay: GAPDH-GFP fusion protein localization in living COS and Hek cells (LCSM); type: cell-based; conditions: first two hours after exposure
# Source text: GAPDH cDNA was cloned from rat brain using oligonucleotides designed to the 5′- and 3′-ends of the coding region of rat GAPDH with PCR. The cDNA was used to produce a GAPDH-green fluorescent protein (GFP) construct by adding a 3′ oligo (Gly)s to the C-terminus of GAPDH followed by a BamHI site to allow subcloning, in frame, into pEGFP-1 (Clontech). The resulting construct contains GAPDH followed by (Gly)5 and enhanced GFP. The insert was subcloned into the Hindlil-Notl sites of pcDNA3. The GAPDH-GFP construct has been transiently transfected into COS1 cells and stably transfected into HEK 293 cells.
# Apoptosis was induced in the living COS and Hek cells maintained in a physiological chamber on LCSM. […] These experiments established that GAPDH nuclear translocation occurs dynamically during the very early stages of apoptosis and indicate that GAPDLH participates in the initiation phase of apoptosis.
structure (smiles),measurement,setting,value
CC(=O)N[C@@H](C(=O)O)C(C)(C)SN=O (racemic) [SNAP],induction of apoptosis,[1],induced apoptosis
"C#CCNC(C)Cc1ccccc1 (single isomer, unassigned; (-)) [(−)-desmethyldeprenyl]",binding to GAPDH,GAPDH [2],bind to GAPDH
same,nuclear translocation (relocation) of GAPDH,PC12 cells,prevent the nuclear relocation of GAPDH
same,nuclear translocation (relocation) of GAPDH,PC12 cells; listed as DES,blocked the nuclear translocation
same,increase in GAPDH protein levels in early apoptosis,GAPDH [3],prevent the increase
same,effect on the GAPDH tetramer,GAPDH [4],disrupt the tetramer forming dimers
same,oligomeric state of GAPDH bound to poly-U RNA,GAPDH [4],converted to a dimer
same,oligomeric state of GAPDH in the presence of SDS,GAPDH [4],remains dimeric
same,oligomeric state of GAPDH in the presence of SDS,GAPDH [4]; listed as DES,convert it to a dimer
"C#CCNCC1=Cc2ccccc2Oc2ccccc21 [CGP3466, dibenzo[bf]oxepin-10-ylmethyl-prop-2-ynyl-amine]",binding to GAPDH,GAPDH [2],bind to GAPDH
same,proteins bound,GAPDH [2],"tubulin, actin, synapsin and GAPDH"
same,nuclear translocation (relocation) of GAPDH,PC12 cells,prevent the nuclear relocation of GAPDH; also recorded: blocked the nuclear translocation
same,increase in GAPDH protein levels in early apoptosis,GAPDH [3],prevent the increase
same,effect on the GAPDH tetramer,GAPDH [4],disrupt the tetramer forming dimers
same,oligomeric state of GAPDH bound to poly-U RNA,GAPDH [4],converted to a dimer
same,oligomeric state of GAPDH in the presence of SDS,GAPDH [4],convert it to a dimer
same,oligomeric state of GAPDH in the presence of SDS,GAPDH [4]; listed as CGP 3466,remains dimeric
same,drug binding to GAPDH after pre-treatment with antibody to the channel site,GAPDH [5],no binding
CC(C)[C@H]1CC[C@@]2(CO2)[C@H]2C(=O)OCC(C(=O)O)=C[C@H]12 [Koningic acid],GAPDH glycolytic function,GAPDH [6],inhibits GAPDH glycolytic function
same,induction of apoptosis,NG108-15 cells,induces apoptosis
"CC(=O)N[C@@H](CS)C(=O)O [NAC, N-acetyl cysteine]",increase in GAPDH protein levels in early apoptosis,GAPDH [3],prevent the increase
NC(=O)c1ccc[n+]([C@@H]2O[C@H](COP(=O)([O-])OP(=O)(O)OC[C@H]3O[C@@H](n4cnc5c(N)ncnc54)[C@H](O)[C@@H]3O)[C@@H](O)[C@H]2O)c1 [NAD^+],nuclear translocation of GAPDH,fibroblasts,induced the dense translocation of GAPDH to the nucleus
same,GAPDH glycolytic activity,GAPDH [7],increases the enzyme's glycolytic activity
same,release of GAPDH from AU-rich RNA,GAPDH [7],releases GAPDH from AU-rich RNA
O=C([O-])c1c(Cl)c(Cl)c(Cl)c(Cl)c1-c1c2cc(I)c(=O)c(I)c-2oc2c(I)c([O-])c(I)cc12.[Na+].[Na+] [Rose Bengal],localization of GAPDH-GFP fusion protein,COS and Hek cells,concentrate in the nucleus of a proportion of the cells
